Results reported in ChEMBL document CHEMBL1201862, “PubChem BioAssay data set” (2004).
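A five-concentration, 48-hour dose response in 96-well plates underlies each endpoint, interpolated linearly between surrounding concentrations. GI50: concentration for 50% inhibition of growth.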 Activity calls are given as the source filed them. No stated cut-off is given here; in the data, active = GI50 up to about 1.1 µM and inactive = higher.

Columns and labels:
Assay in all cases: DTP human tumour cell line panel, 48 h
786-0 = system: 786-0
A498 = system: A498
CCRF-CEM = system: CCRF-CEM
EKVX = system: EKVX
HCT-15 = system: HCT-15
HL-60 = system: HL-60
Hs-578T = system: Hs-578T
MDA-MB-435 = system: MDA-MB-435
MDA-N = system: MDA-N
NCI-H23 = system: NCI-H23
OVCAR-3 = system: OVCAR-3
OVCAR-4 = system: OVCAR-4
OVCAR-5 = system: OVCAR-5
RXF 393 = system: RXF 393
SF-268 = system: SF-268
SF-295 = system: SF-295
SN12C = system: SN12C
T47D = system: T47D
U-251 = system: U-251
UO-31 = system: UO-31

SMILES	GI50 (786-0)	GI50 (A498)	GI50 (CCRF-CEM)	GI50 (EKVX)	GI50 (HCT-15) [µM]	GI50 (HL-60)	GI50 (Hs-578T)	GI50 (MDA-MB-435)	GI50 (MDA-N)	GI50 (NCI-H23)	GI50 (OVCAR-3)	GI50 (OVCAR-4)	GI50 (OVCAR-5)	GI50 (RXF 393)	GI50 (SF-268)	GI50 (SF-295)	GI50 (SN12C)	GI50 (T47D)	GI50 (U-251)	GI50 (UO-31)
CCCCCc1nnc(NS(=O)(=O)c2ccc(NC(=O)OCC(C)C)cc2)s1	40.8 µM (inactive)	2.64 µM (inactive)	26.4 µM (inactive)	33.3 µM (inactive)	36	31.2 µM (inactive)	51.2 µM (inactive)	33.7 µM (inactive)	32.3 µM (inactive)	53.2 µM (inactive)	30.3 µM (inactive)	26.1 µM (inactive)	54.7 µM (inactive)	74.8 µM (inactive)	41.9 µM (inactive)	37.5 µM (inactive)	33.9 µM (inactive)	34.2 µM (inactive)	42.9 µM (inactive)	33.4 µM (inactive)
COc1cccc2ccc3c(c12)C(=O)OC31CCc2c(C)cccc21 (stereo not given)	28.8 µM (inactive)	7.41 µM (inactive)	24 µM (inactive)	27.1 µM (inactive)	10.3	8.59 µM (inactive)	38.5 µM (inactive)	20.4 µM (inactive)	7.55 µM (inactive)	8.51 µM (inactive)	10.3 µM (inactive)	15.2 µM (inactive)	26.5 µM (inactive)	8.97 µM (inactive)	30.3 µM (inactive)	9.95 µM (inactive)	16.5 µM (inactive)	32.4 µM (inactive)	23.2 µM (inactive)	9.16 µM (inactive)
COC(=O)/C(=N\NC(=S)NN)C(C(=O)OC)C(=O)C(=O)Nc1cccc(C(F)(F)F)c1 (stereo not given)	> 100 µM (inactive)	> 100 µM (inactive)	> 100 µM (inactive)	> 100 µM (inactive)	> 100	> 100 µM (inactive)	> 100 µM (inactive)	> 100 µM (inactive)	> 100 µM (inactive)	> 100 µM (inactive)	> 100 µM (inactive)	> 100 µM (inactive)	79.1 µM (inactive)	> 100 µM (inactive)	> 100 µM (inactive)	> 100 µM (inactive)	> 100 µM (inactive)	> 100 µM (inactive)	> 100 µM (inactive)	> 100 µM (inactive)
CCOC(=O)c1cc(Br)c(-c2cc(C)co2)[nH]1	> 100 µM (inactive)	> 100 µM (inactive)	> 100 µM (inactive)	67 µM (inactive)	> 100	55.7 µM (inactive)	84.5 µM (inactive)	32.9 µM (inactive)	36.4 µM (inactive)	> 100 µM (inactive)	> 100 µM (inactive)	> 100 µM (inactive)	> 100 µM (inactive)	> 100 µM (inactive)	> 100 µM (inactive)	> 100 µM (inactive)	> 100 µM (inactive)	> 100 µM (inactive)	> 100 µM (inactive)	66.7 µM (inactive)
